Data from patent US20240246964A1 (Arbutus Biopharma Corporation, priority 2021, published 2024).

How the values were obtained:
[1] = target: PD-L1 His protein / PD-1 Fc protein (Homo sapiens (Human), UniProt Q9NZQ7); assay: HTRF Assay (PD-1/PD-L1 interaction); assay type: binding; details: PD-L1 His 6 nM, PD-1 Fc 6 nM
human PD-L1 = human PD-L1 (Homo sapiens (Human), UniProt Q9NZQ7); assay: T cell activation luciferase reporter cell culture system (T Cell Activation Assay); assay type: cell-based; details: luciferase reporter assay; PD-L1 aAPC/CHO-K1 cells with PD-1 effector Jurkat T cells
Sequence of human PD-L1 (Q9NZQ7 19-290): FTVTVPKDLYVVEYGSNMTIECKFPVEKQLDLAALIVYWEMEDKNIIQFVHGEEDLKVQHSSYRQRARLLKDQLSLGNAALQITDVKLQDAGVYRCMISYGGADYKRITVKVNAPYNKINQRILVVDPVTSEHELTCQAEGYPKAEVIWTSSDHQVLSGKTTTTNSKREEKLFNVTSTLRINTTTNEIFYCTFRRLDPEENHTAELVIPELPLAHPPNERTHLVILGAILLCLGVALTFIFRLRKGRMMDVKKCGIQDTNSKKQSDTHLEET

Sequence of PD-L1 His protein / PD-1 Fc protein (Q9NZQ7 19-238): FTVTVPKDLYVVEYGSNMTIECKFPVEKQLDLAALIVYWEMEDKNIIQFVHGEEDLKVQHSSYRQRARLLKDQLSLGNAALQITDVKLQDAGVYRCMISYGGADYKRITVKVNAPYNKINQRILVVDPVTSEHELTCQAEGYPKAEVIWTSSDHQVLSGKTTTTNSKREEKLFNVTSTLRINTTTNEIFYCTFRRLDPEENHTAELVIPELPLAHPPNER

Row | Compound | IC50 [1] [nM] | EC50 (human PD-L1) [nM]
1 | COc1cc(-c2nccc(-c3cccc(-c4ccc5c(CN(C)C6CCOCC6)cn(C)c5n4)c3Cl)c2Cl)ccc1CNC1CCOCC1 [Compound 635, N-((6-(2-Chloro-3-(3-chloro-2-(3-methoxy-4-(((tetrahydro-2H-pyran-4-yl)amino)methyl)phenyl)pyridin-4-yl)phenyl)-1-methyl-1H-pyrrolo[2,3-b]pyridin-3-yl)methyl)-N-methyltetrahydro-2H-pyran-4-amine] | 0.19 | 237
2 | COc1cc(-c2nccc(-c3cccc(-c4ccc(CNC5CCN(C(C)=O)CC5)c(OC)n4)c3Cl)c2Cl)ccc1CN1CC2(COC2)C1 [Example 380, 1-(4-(((6-(3-(2-(4-((2-Oxa-6-azaspiro[3.3]heptan-6-yl)methyl)-3-methoxyphenyl)-3-chloropyridin-4-yl)-2-chlorophenyl)-2-methoxypyridin-3-yl)methyl)amino)piperidin-1-yl)ethan-1-one] | 1.43 | 20.5
3 | COc1cc(-c2nccc(-c3cccc(-c4ccc5c(CNC6CCOCC6)cn(C)c5n4)c3Cl)c2Cl)ccc1CNCCO [Compound 606, 2-((4-(3-Chloro-4-(2-chloro-3-(1-methyl-3-(((tetrahydro-2H-pyran-4-yl)amino)methyl)-1H-pyrrolo[2,3-b]pyridin-6-yl)phenyl)pyridin-2-yl)-2-methoxybenzyl)amino)ethan-1-ol] | 0.12 | 237
4 | CNCc1ccc(-c2ccnc(-c3cccc4c3CC[C@@H]4Nc3nc(OC)c(CNC)cc3C(F)(F)F)c2Cl)nc1OC [Compound 224, (S)-N-(4-(3′-chloro-6-methoxy-5-((methylamino)methyl)-[2,4′-bipyridin]-2′-yl)-2,3-dihydro-1H-inden-1-yl)-6-methoxy-5-((methylamino)methyl)-3-(trifluoromethyl)pyridin-2-amine] | 8.22 | ≥ 10000
5 | COc1nc(-c2cccc(-c3nccc(-c4ccc(CNC5CCOCC5)c(OC)n4)c3Cl)c2Cl)ccc1CNC1CCOCC1 [Compound 574, N-((3′-Chloro-2′-(2-chloro-3-(6-methoxy-5-(((tetrahydro-2H-pyran-4-yl)amino)methyl)pyridin-2-yl)phenyl)-6-methoxy-[2,4′-bipyridin]-5-yl)methyl)tetrahydro-2H-pyran-4-amine] | 0.04 | 14
6 | COc1cc(-c2nccc(-c3cccc(-c4ccc(CNC[C@H]5CNC(=O)C5)c(OC)n4)c3Cl)c2Cl)ccc1CNC[C@H]1CNC(=O)C1 [Example 405, (S)-4-((((6-(2-Chloro-3-(3-chloro-2-(3-methoxy-4-(((((S)-5-oxopyrrolidin-3-yl)methyl)amino)methyl)phenyl)pyridin-4-yl)phenyl)-2-methoxypyridin-3-yl)methyl)amino)methyl)pyrrolidin-2-one] | 0.237 | 24
7 | CCC(=O)N1CCC(NCc2ccc(-c3cccc(-c4ccnc(-c5cc(F)c(CNC6CCN(C(=O)CC)CC6)c(OC)c5)c4Cl)c3Cl)nc2OC)CC1 [Example 331, 1-(4-(((6-(2-Chloro-3-(3-chloro-2-(3-fluoro-5-methoxy-4-(((1-propionylpiperidin-4-yl)amino)methyl)phenyl)pyridin-4-yl)phenyl)-2-methoxypyridin-3-yl)methyl)amino)piperidin-1-yl)propan-1-one] | 23.6 | 17
8 | COc1cc(-c2nccc(-c3cccc(-c4ccc(CNC[C@@H]5CCC(=O)N5)c(OC)n4)c3Cl)c2Cl)cnc1CNC[C@@H]1CCC(=O)N1 [Compound 23, (S)-5-((((6-(2-chloro-3-(3-chloro-5′-methoxy-6′-(((((S)-5-oxopyrrolidin-2-yl)methyl)amino)methyl)-[2,3′-bipyridin]-4-yl)phenyl)-2-methoxypyridin-3-yl)methyl)amino)methyl)pyrrolidin-2-one] | 0.1 | 36.3
9 | COc1cc(-c2nccc(-c3cccc(-c4ccc(CN5CCC(O)CC5)c(OC)n4)c3Cl)c2Cl)ccc1CN1CC2(CCN(C(C)=O)C2)C1 [Example 693, 1-(2-(4-(3-Chloro-4-(2-chloro-3-(5-((4-hydroxypiperidin-1-yl)methyl)-6-methoxypyridin-2-yl)phenyl)pyridin-2-yl)-2-methoxybenzyl)-2,6-diazaspiro[3.4]octan-6-yl)ethan-1-one] | 0.71 | 26.1
10 | COc1cc(-c2nccc(-c3cccc(NC(=O)c4ccc(CNC[C@@H]5CCC(=O)N5)cn4)c3Cl)c2Cl)ccc1CNC[C@@H]1CCC(=O)N1 [Example 675, N-(2-Chloro-3-(3-chloro-2-(3-methoxy-4-(((((S)-5-oxopyrrolidin-2-yl)methyl)amino)methyl)phenyl)pyridin-4-yl)phenyl)-5-(((((S)-5-oxopyrrolidin-2-yl)methyl)amino)methyl)picolinamide] | 0.26 | 26.9
11 | COC(=O)C[C@@H](CO)NCc1ccc(-c2nccc(-c3cccc(-c4ccc(CNC5CCN(C(C)=O)CC5)c(OC)n4)c3Cl)c2Cl)cc1OC [Example 339, Methyl (S)-3-((4-(4-(3-(5-(((1-acetylpiperidin-4-yl)amino)methyl)-6-methoxypyridin-2-yl)-2-chlorophenyl)-3-chloropyridin-2-yl)-2-methoxybenzyl)amino)-4-hydroxybutanoate] | 0.12 | 97.6
12 | COCCNCc1ccc(-c2nccc(-c3cccc(-c4ccc(CNCCOC)c(OC)n4)c3Cl)c2Cl)cc1OC [Example 446, N-((6-(2-chloro-3-(3-chloro-2-(3-methoxy-4-(((2-methoxyethyl)amino)methyl)phenyl)pyridin-4-yl)phenyl)-2-methoxypyridin-3-yl)methyl)-2-methoxyethan-1-amine] | 3.75 | 31
13 | COc1cc(-c2cccc(-c3ccnc(-c4cnc(CNC5CCN(C(C)=O)CC5)c(OC)c4)c3Cl)c2Cl)cnc1CNC1CCN(C(C)=O)CC1 [Compound 567, 1-(4-(((5-(3-(6′-(((1-acetylpiperidin-4-yl)amino)methyl)-3-chloro-5′-methoxy-[2,3′-bipyridin]-4-yl)-2-chlorophenyl)-3-methoxypyridin-2-yl)methyl)amino)piperidin-1-yl)ethan-1-one] | 17.7 | ≥ 10000
14 | COc1cc(CNC2CCN(C(C)=O)CC2)cc(-c2nccc(-c3cccc(-c4ccc(CNC5CCN(C(C)=O)CC5)c(OC)n4)c3Cl)c2Cl)c1 [Compound 154, 1-(4-(((6-(3-(2-(3-(((1-acetylpiperidin-4-yl)amino)methyl)-5-methoxyphenyl)-3-chloropyridin-4-yl)-2-chlorophenyl)-2-methoxypyridin-3-yl)methyl)amino)piperidin-1-yl)ethan-1-one] | 8.73 | ≥ 10000
15 | COc1nc(-c2cccc(-c3ccnc(-c4ccc(CNC[C@@H]5CCC(=O)N5)c(OC)n4)c3Cl)c2Cl)ccc1CNC[C@@H]1CCC(=O)N1 [Compound 630, (S)-5-((((6-(2-Chloro-3-(3-chloro-6′-methoxy-5′-(((((S)-5-oxopyrrolidin-2-yl)methyl)amino)methyl)-[2,2′-bipyridin]-4-yl)phenyl)-2-methoxypyridin-3-yl)methyl)amino)methyl)pyrrolidin-2-one] | 0.17 | 49.6
16 | COc1nc(-c2cccc(-c3ccnc(-c4cc(Cl)c5c(c4)CCN(CC4CCN(C(C)=O)CC4)C5)c3Cl)c2Cl)ccc1CNC[C@@H]1CCC(=O)N1 [Example 289, (S)-5-((((6-(3-(2-(2-((1-Acetylpiperidin-4-yl)methyl)-8-chloro-1,2,3,4-tetrahydroisoquinolin-6-yl)-3-chloropyridin-4-yl)-2-chlorophenyl)-2-methoxypyridin-3-yl)methyl)amino)methyl)pyrrolidin-2-one] | 2.95 | 87.6
17 | COc1cc(-c2nccc(-c3cccc(-c4ccc(CNC[C@@H]5CCC(=O)N5)c(OC)n4)c3Cl)c2Cl)cc(F)c1CN1CC2(CNC(=O)C2)C1 [Compound 145, (S)-2-(4-(3-chloro-4-(2-chloro-3-(6-methoxy-5-((((5-oxopyrrolidin-2-yl)methyl)amino)methyl)pyridin-2-yl)phenyl)pyridin-2-yl)-2-fluoro-6-methoxybenzyl)-2,6-diazaspiro[3.4]octan-7-one] | 2.02 | 17.7
18 | CNCc1ccc(-c2cccc(-c3ccnc(-c4ccc5c(CNC)cn(C)c5c4)c3Cl)c2Cl)nc1OC [Example 276, 1-(6-(2-Chloro-3-(3-chloro-2-(1-methyl-3-((methylamino)methyl)-1H-indol-6-yl)pyridin-4-yl)phenyl)-2-methoxypyridin-3-yl)-N-methylmethanamine] | 1.04 | ≥ 10000
19 | COc1cc(CNC[C@@H]2CCC(=O)N2)cc(-c2nccc(-c3cccc(-c4ccc(CNC[C@@H]5CCC(=O)N5)c(OC)n4)c3Cl)c2Cl)c1 [Compound 153, (S)-5-((((6-(2-chloro-3-(3-chloro-2-(3-methoxy-5-(((((S)-5-oxopyrrolidin-2-yl)methyl)amino)methyl)phenyl)pyridin-4-yl)phenyl)-2-methoxypyridin-3-yl)methyl)amino)methyl)pyrrolidin-2-one] | 5.14 | 782
20 | COc1cc(-c2nccc(-c3cccc(-c4ccc(CNC5CCN(C(C)=O)CC5)c(OC)n4)c3Cl)c2Cl)cc2c1CN(C1CCN(CC(=O)O)C1=O)CC2 (stereo not drawn) [Example 480, 2-(3-(6-(4-(3-(5-(((1-Acetylpiperidin-4-yl)amino)methyl)-6-methoxypyridin-2-yl)-2-chlorophenyl)-3-chloropyridin-2-yl)-8-methoxy-3,4-dihydroisoquinolin-2(1H)-yl)-2-oxopyrrolidin-1-yl)acetic acid] | 3.9 | 1490
21 | COc1nc(-c2cccc(-c3ccnc(-c4cc(OC)c5nc(CN6CC(C)(O)C6)cn5c4)c3Cl)c2Cl)ccc1CNC[C@@H]1CCC(=O)N1 [Example 317, (S)-5-((((6-(2-Chloro-3-(3-chloro-2-(2-((3-hydroxy-3-methylazetidin-1-yl)methyl)-8-methoxyimidazo[1,2-a]pyridin-6-yl)pyridin-4-yl)phenyl)-2-methoxypyridin-3-yl)methyl)amino)methyl)pyrrolidin-2-one] | 1.94 | 62.6
